Results published in patent US4582845A, “Pharmaceutical composition for injection” (Sumitomo Pharmaceuticals Co., Ltd., priority 1980, dated 1986).
In brackets after ≈: the same amount, converted by molar mass.

How the values were obtained:
Type in all cases: physicochemical
[1] = Solubility in aqueous solutions of surfactants/additives and non-aqueous vehicles (Experimental Example 6)
Protocol: (§1) Excess amounts of the Compound A were dispersed in aqueous solutions containing various surfactants and additives, respectively. In each case, the solubility of the compound was determined by measuring the light absorbance at 277 nm with the filtrate. For non-aqueous vehicles marked with *, the corresponding solubility of the compound was judged by eye-measurement.

[2] = Solubility in solutions of basic substances (Experimental Example 7)
Protocol: as §1
Using the same procedures as stated in Experimental Example 6, solubility measurements were carried out.

Solubility in water = conditions: 25° C., as free base form
[3] = Coloration of Compound A on exposure to oxygen, heat or light

- solubility ([1]; 5% amycol no. 1): 5.1 mg/mL (≈ 40.1 mM)
- solubility ([1]; 5% ethylurea): 5.6 mg/mL (≈ 44.1 mM)
- solubility ([1]; 5% levulinic acid): 6.3 mg/mL (≈ 49.6 mM)
- solubility ([1]; 5% nicotinic amide): 7.2 mg/mL (≈ 56.6 mM)
- solubility ([1]; 5% polyoxyethylene hydrogenated castor oil, organic solvent or mixture): 4.5 mg/mL (≈ 35.4 mM)
- solubility ([1]; 5% polyoxyethylene sorbitan monooleate): 4.6 mg/mL (≈ 36.2 mM)
- solubility ([1]; 5% sodium lauryl sulfate): 4.7 mg/mL (≈ 37 mM)
- solubility ([1]; 5% sodium salicylate): 6.5 mg/mL (≈ 51.1 mM)
- solubility ([1]; 5% tartaric acid): 7 mg/mL (≈ 55.1 mM)
- solubility ([1]; 10% mannitol): 4.6 mg/mL (≈ 36.2 mM)
- Solubility (in words) ([1]; 10% sodium deoxycholate): white gel
- solubility ([1]; corn oil, organic solvent or mixture): < 2 mg/mL
- solubility ([1]; cotton seed oil, organic solvent or mixture): < 2 mg/mL
- solubility ([1]; ethanol, organic solvent or mixture): < 2 mg/mL
- solubility ([1]; glycerine, organic solvent or mixture): ~3 mg/mL (≈ 23.6 mM)
- solubility ([1]; n,n-dimethylacetamide, organic solvent or mixture): < 2 mg/mL
- solubility ([1]; polyethylene glycol, organic solvent or mixture): < 2 mg/mL
- solubility ([1]; propylene glycol, organic solvent or mixture): ~5 mg/mL (≈ 39.3 mM)
- solubility ([1]; saturated aspartic acid): 5.4 mg/mL (≈ 42.5 mM)
- Solubility (in words) ([1]; saturated gentisic acid): white gel
- solubility ([1]; saturated glutamic acid): 5.3 mg/mL (≈ 41.7 mM)
- solubility ([1]; sesame oil, organic solvent or mixture): < 2 mg/mL
- solubility ([1]; water): 4.7 mg/mL (≈ 37 mM)
- solubility ([2]; pH 8.2, 5% L-lysine, pH of solvent 8.20): 10.7 mg/mL (≈ 84.2 mM)
- solubility ([2]; pH 8.42, aqueous buffer, NaHCO3-Na2CO3 buffer, pH of solvent 8.42): 26.7 mg/mL (≈ 210 mM)
- solubility ([2]; pH 8.44, 5% borax, pH of solvent 8.44): 22.2 mg/mL (≈ 175 mM)
- solubility ([2]; pH 8.5, 0.5% NaOH, pH of solvent 8.50): 21.4 mg/mL (≈ 168 mM)
- solubility ([2]; pH 8.56, 5% trishydroxy methylamino methane, pH of solvent 8.56): 25.7 mg/mL (≈ 202 mM)
- solubility ([2]; pH 8.64, 1% ethanolamine, pH of solvent 8.64): 24.9 mg/mL (≈ 196 mM)
- solubility ([2]; pH 8.69, 5% L-arginine, pH of solvent 8.69): 33.5 mg/mL (≈ 264 mM)
- solubility (Solubility in water): ~4.7 mg/mL (≈ 37 mM)
SMILES: NC(=O)c1nc[nH]c1O [Compound A, 4-carbamoyl-5-hydroxyimidazole]
- coloration / instability [3]: so unstable that it is easily colored upon exposure to oxygen, heat, or light
